These results are taken from patent US8431888B2, “Electrospray and nanospray ionization of discrete samples in droplet format” (priority 2009, dated 2013).

In experiment [1] the target is T1, acetylcholinesterase (AchE) (Electrophorus electricus, UniProt O42275).
T1 construct: purchased Sigma (St. Louis, Mo.) Type VI-S (catalogue number not given)
Briefly: biochemical. It counts as biochemical. Conditions: for AchE inhibition in screen (choline production): compound tested at 100 μM, triplicate, peak area ratio of choline to internal standard; for IC50: 10 inhibitor concentrations, 20 min at room temperature, choline formation, sigmoidal dose-response fit.

The subject of experiment [2] is AchE. Conditions: read-out: previously reported IC50, cited from earlier work.
The mark [3] stands for this setting: literature values, experimental conditions not identical.

Like-named read-outs stand apart in the source and are kept apart here.

T1 sequence (O42275 24-633): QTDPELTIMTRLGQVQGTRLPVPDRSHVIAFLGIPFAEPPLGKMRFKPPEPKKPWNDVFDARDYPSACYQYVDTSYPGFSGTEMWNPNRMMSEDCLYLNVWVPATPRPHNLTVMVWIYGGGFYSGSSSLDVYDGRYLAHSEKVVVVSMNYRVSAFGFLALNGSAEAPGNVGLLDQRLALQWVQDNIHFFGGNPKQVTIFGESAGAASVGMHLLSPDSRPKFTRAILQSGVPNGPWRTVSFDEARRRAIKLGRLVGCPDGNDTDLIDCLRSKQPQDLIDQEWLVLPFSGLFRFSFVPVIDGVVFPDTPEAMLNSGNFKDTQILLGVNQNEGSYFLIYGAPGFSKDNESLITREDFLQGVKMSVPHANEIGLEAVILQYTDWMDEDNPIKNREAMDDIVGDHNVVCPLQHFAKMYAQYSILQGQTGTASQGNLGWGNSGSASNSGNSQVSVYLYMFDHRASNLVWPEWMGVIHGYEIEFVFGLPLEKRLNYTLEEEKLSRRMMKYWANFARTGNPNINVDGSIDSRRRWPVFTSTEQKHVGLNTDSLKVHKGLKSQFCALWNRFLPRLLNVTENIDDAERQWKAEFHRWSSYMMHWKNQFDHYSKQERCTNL

For `C[S+](C)[O-]` [DMSO], the “AchE inhibition in screen (choline production)” value in experiment [1] was “some inhibition”.
In the case of `CN(C)C(=O)Oc1cccc([N+](C)(C)C)c1` [neostigmine], in experiment [2], the IC50 is 0.0113 µM.
With `CNC(=O)Oc1ccc2c(c1)[C@]1(C)CCN(C)[C@@H]1N2C` [eserine], in experiment [2] (setting [3]), the IC50 is […].
Turning to `CCOC(=O)CC(SP(=S)(OC)OC)C(=O)OCC` (centres unmarked) [malathion], the IC50 in experiment [1] is 480 ± 70 µM; in experiment [2] (setting [3]) it was 370 µM.
As for `CC[N+](C)(C)c1cccc(O)c1` [edrophonium], the IC50 was 63 ± 11 µM in experiment [1] and 5.4 µM in experiment [2].
On to `CC(C)NCC(O)c1ccc(O)c(O)c1` (centres unmarked) [isoproterenol], for which the “AchE inhibition in screen (choline production)” value in experiment [1] is recorded as “some inhibition”.
